The first assay concerns the target T1, Alpha-1B adrenergic receptor (Rattus norvegicus, UniProt P15823).
T1 sequence (P15823 whole entry): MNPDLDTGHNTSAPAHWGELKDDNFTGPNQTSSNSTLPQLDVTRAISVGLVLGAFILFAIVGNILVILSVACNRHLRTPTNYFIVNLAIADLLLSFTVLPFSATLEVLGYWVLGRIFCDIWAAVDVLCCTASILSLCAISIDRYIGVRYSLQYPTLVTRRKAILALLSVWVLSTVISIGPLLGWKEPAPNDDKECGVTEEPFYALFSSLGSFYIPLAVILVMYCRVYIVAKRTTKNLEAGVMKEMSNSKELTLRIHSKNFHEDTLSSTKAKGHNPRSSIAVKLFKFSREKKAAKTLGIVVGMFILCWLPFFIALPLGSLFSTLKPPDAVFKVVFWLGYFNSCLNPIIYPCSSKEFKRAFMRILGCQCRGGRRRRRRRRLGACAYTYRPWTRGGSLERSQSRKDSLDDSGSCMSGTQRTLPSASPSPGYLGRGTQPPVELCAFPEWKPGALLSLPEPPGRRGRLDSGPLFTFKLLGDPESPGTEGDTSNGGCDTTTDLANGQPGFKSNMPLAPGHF
The assay can be described thus: DRUGMATRIX: Alpha-1B adrenergic receptor radioligand binding (ligand: prazosin). The assay is classed as cell membranes, Wistar, Liver, Membrane. Conditions: Not Active = under 50% inhibition at 10 µM.
Consider `CC(C)(Oc1ccc(C2CCCc3ccccc32)cc1)C(=O)O` (configuration not stated) [NAFENOPIN], for which the IC50 result was “Not Active”.

As for `CC(C)[C@H]1CC[C@H](C(=O)N[C@H](Cc2ccccc2)C(=O)O)CC1` [NATEGLINIDE], the IC50 entry is “Not Active”.

On to `CCN[C@@H]1C[C@H](N)[C@@H](O[C@H]2OC(CN)=CC[C@H]2N)[C@H](O)[C@H]1O[C@H]1OC[C@](C)(O)[C@H](NC)[C@H]1O` [NETILMICIN], for which the IC50 entry is recorded as “Not Active”.

Another assay has as its target T2, Thromboxane-A synthase (Homo sapiens, UniProt P24557).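 Note: enzyme inhibition assay with PGH2 supplied as substrate; in other assays of this panel Not Active means under 50% inhibition at 10 µM.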
T2 sequence (P24557 whole entry): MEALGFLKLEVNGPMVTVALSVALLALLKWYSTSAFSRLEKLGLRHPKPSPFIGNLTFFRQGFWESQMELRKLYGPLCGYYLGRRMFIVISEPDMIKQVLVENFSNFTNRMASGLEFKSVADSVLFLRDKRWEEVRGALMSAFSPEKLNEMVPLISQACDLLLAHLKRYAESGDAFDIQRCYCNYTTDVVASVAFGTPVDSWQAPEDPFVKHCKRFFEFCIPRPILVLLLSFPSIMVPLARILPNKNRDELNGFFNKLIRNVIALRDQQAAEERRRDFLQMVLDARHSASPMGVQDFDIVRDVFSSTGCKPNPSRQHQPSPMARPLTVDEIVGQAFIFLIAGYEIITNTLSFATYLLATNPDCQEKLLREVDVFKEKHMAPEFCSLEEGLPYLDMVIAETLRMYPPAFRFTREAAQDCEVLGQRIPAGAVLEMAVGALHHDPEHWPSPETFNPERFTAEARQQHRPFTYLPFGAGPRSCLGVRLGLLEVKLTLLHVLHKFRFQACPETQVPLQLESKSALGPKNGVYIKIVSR
The assay can be described thus: biochemical. Format: tissue-based, Platelet. As to conditions: platelet.
With `CC(C)(Oc1ccc(C2CCCc3ccccc32)cc1)C(=O)O` (configuration not stated) [NAFENOPIN], the IC50 result is on record as “Not Active”.

For the compound `CC(C)[C@H]1CC[C@H](C(=O)N[C@H](Cc2ccccc2)C(=O)O)CC1` [NATEGLINIDE], the IC50 entry is “Not Active”.

In the case of `CCN[C@@H]1C[C@H](N)[C@@H](O[C@H]2OC(CN)=CC[C@H]2N)[C@H](O)[C@H]1O[C@H]1OC[C@](C)(O)[C@H](NC)[C@H]1O` [NETILMICIN], the IC50 result is given as “Not Active”.

For another assay, the target named is T3, C-X-C chemokine receptor type 1 (Homo sapiens, UniProt P25024). Note: in other assays of this panel Not Active means under 50% inhibition at 10 µM.
T3 sequence (P25024 whole entry): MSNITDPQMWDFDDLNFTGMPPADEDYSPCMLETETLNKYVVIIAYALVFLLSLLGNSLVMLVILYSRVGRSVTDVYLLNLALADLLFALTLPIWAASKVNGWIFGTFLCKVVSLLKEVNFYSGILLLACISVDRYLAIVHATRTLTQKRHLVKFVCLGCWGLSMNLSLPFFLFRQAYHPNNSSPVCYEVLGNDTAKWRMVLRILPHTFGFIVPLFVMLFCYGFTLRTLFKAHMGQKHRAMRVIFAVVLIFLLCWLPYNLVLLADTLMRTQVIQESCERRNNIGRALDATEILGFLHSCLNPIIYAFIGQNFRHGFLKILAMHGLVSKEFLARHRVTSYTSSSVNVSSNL
Assay: not given
Settings: not given
Consider `CC(C)(Oc1ccc(C2CCCc3ccccc32)cc1)C(=O)O` (configuration not stated) [NAFENOPIN], for which the IC50 entry was “Not Active”.

For `CC(C)[C@H]1CC[C@H](C(=O)N[C@H](Cc2ccccc2)C(=O)O)CC1` [NATEGLINIDE], the IC50 entry is on record as “Not Active”.

Regarding `CCN[C@@H]1C[C@H](N)[C@@H](O[C@H]2OC(CN)=CC[C@H]2N)[C@H](O)[C@H]1O[C@H]1OC[C@](C)(O)[C@H](NC)[C@H]1O` [NETILMICIN], the IC50 result is listed as “Not Active”.

The target in another assay is Prostaglandin G/H synthase 1 (Homo sapiens, UniProt P23219). The assay can be described thus: biochemical. Format: tissue-based, Platelet. Conditions: platelet.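 Note: inhibition of COX-1 enzyme activity, with arachidonic acid supplied as substrate; in other assays of this panel Not Active means under 50% inhibition at 10 µM.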
Sequence of Prostaglandin G/H synthase 1 (P23219 whole entry): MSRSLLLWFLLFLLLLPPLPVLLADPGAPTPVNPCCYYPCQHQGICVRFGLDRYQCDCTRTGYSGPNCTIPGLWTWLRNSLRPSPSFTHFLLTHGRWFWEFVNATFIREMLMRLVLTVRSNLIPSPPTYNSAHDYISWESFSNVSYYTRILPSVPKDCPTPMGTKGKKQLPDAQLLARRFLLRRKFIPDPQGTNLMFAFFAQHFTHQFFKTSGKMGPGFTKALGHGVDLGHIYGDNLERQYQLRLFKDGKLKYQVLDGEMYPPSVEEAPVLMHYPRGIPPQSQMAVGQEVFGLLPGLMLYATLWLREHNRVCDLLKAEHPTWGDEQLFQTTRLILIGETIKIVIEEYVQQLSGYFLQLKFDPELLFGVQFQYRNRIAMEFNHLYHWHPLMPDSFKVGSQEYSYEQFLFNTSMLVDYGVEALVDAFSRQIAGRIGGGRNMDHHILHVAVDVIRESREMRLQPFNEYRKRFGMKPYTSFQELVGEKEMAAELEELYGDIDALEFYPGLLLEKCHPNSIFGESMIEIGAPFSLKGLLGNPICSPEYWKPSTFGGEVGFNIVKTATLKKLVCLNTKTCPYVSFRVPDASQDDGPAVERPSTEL
Turning to `CC(C)(Oc1ccc(C2CCCc3ccccc32)cc1)C(=O)O` (configuration not stated) [NAFENOPIN], the IC50 entry is given as “Not Active”.

In the case of `CC(C)[C@H]1CC[C@H](C(=O)N[C@H](Cc2ccccc2)C(=O)O)CC1` [NATEGLINIDE], the IC50 result was “Not Active”.

As for `CCN[C@@H]1C[C@H](N)[C@@H](O[C@H]2OC(CN)=CC[C@H]2N)[C@H](O)[C@H]1O[C@H]1OC[C@](C)(O)[C@H](NC)[C@H]1O` [NETILMICIN], the IC50 entry is “Not Active”.

Another assay addresses Glycine receptor (Rattus norvegicus, UniProt P22771+P24524+P07727+P20781).
Assay: not given
Format: cell membranes, Wistar, Spinal cord, Membrane.
Settings: not given
Consider `CC(C)(Oc1ccc(C2CCCc3ccccc32)cc1)C(=O)O` (configuration not stated) [NAFENOPIN], for which the IC50 result is on record as “Not Active”.

On to `CC(C)[C@H]1CC[C@H](C(=O)N[C@H](Cc2ccccc2)C(=O)O)CC1` [NATEGLINIDE], for which the IC50 entry is given as “Not Active”.

On to `CCN[C@@H]1C[C@H](N)[C@@H](O[C@H]2OC(CN)=CC[C@H]2N)[C@H](O)[C@H]1O[C@H]1OC[C@](C)(O)[C@H](NC)[C@H]1O` [NETILMICIN], for which the IC50 result is recorded as “Not Active”.

The target in a further assay is T4, Leukotriene C4 synthase (Cavia porcellus, UniProt A6XA80).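 Note: enzyme inhibition assay of leukotriene C4 synthase, using LTA4 as the substrate; in other assays of this panel Not Active means under 50% inhibition at 10 µM.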
T4 sequence (A6XA80 whole entry): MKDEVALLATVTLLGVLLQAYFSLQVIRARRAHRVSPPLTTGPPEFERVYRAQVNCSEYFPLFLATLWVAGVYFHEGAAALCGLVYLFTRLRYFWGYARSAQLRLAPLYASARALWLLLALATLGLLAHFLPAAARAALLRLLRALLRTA
Assay: not given
Format: tissue-based, Lung.
Settings: not given
Turning to `CC(C)(Oc1ccc(C2CCCc3ccccc32)cc1)C(=O)O` (configuration not stated) [NAFENOPIN], the IC50 entry was “Not Active”.

In the case of `CC(C)[C@H]1CC[C@H](C(=O)N[C@H](Cc2ccccc2)C(=O)O)CC1` [NATEGLINIDE], the IC50 result was “Not Active”.

On to `CCN[C@@H]1C[C@H](N)[C@@H](O[C@H]2OC(CN)=CC[C@H]2N)[C@H](O)[C@H]1O[C@H]1OC[C@](C)(O)[C@H](NC)[C@H]1O` [NETILMICIN], for which the IC50 entry is recorded as “Not Active”.

A further assay addresses T5, Cathepsin G (Homo sapiens, UniProt P08311).
T5 sequence (P08311 whole entry): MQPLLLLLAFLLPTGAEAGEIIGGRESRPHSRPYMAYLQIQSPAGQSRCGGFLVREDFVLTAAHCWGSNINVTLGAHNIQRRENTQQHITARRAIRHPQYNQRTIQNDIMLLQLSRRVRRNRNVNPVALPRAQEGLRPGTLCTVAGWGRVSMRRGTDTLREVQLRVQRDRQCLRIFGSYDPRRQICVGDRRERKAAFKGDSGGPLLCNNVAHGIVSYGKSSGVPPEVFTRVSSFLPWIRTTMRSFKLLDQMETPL
Assay: not given
The assay is classed as tissue-based. Conditions: neutrophil.
Regarding `CC(C)(Oc1ccc(C2CCCc3ccccc32)cc1)C(=O)O` (configuration not stated) [NAFENOPIN], the IC50 entry is recorded as “Not Active”.

Regarding `CC(C)[C@H]1CC[C@H](C(=O)N[C@H](Cc2ccccc2)C(=O)O)CC1` [NATEGLINIDE], the IC50 result is listed as “Not Active”.

Consider `CCN[C@@H]1C[C@H](N)[C@@H](O[C@H]2OC(CN)=CC[C@H]2N)[C@H](O)[C@H]1O[C@H]1OC[C@](C)(O)[C@H](NC)[C@H]1O` [NETILMICIN], for which the IC50 entry is listed as “Not Active”.

Another assay concerns the target T6, Neutrophil elastase (Homo sapiens, UniProt P08246).
T6 sequence (P08246 whole entry): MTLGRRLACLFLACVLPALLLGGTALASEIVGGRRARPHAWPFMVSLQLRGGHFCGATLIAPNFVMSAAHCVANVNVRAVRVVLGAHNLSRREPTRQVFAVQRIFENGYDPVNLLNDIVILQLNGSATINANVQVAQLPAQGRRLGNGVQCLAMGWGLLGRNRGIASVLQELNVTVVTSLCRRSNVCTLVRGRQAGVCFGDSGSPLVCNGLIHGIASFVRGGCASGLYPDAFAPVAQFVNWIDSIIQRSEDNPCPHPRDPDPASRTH
Assay: not given
Format: tissue-based.
Settings: not given
Consider `CC(C)(Oc1ccc(C2CCCc3ccccc32)cc1)C(=O)O` (configuration not stated) [NAFENOPIN], for which the IC50 entry was “Not Active”.

As for `CC(C)[C@H]1CC[C@H](C(=O)N[C@H](Cc2ccccc2)C(=O)O)CC1` [NATEGLINIDE], the IC50 result was “Not Active”.

Turning to `CCN[C@@H]1C[C@H](N)[C@@H](O[C@H]2OC(CN)=CC[C@H]2N)[C@H](O)[C@H]1O[C@H]1OC[C@](C)(O)[C@H](NC)[C@H]1O` [NETILMICIN], the IC50 result is listed as “Not Active”.

For a further assay, the target named is T7, Interstitial collagenase (Homo sapiens, UniProt P03956).
T7 sequence (P03956 whole entry): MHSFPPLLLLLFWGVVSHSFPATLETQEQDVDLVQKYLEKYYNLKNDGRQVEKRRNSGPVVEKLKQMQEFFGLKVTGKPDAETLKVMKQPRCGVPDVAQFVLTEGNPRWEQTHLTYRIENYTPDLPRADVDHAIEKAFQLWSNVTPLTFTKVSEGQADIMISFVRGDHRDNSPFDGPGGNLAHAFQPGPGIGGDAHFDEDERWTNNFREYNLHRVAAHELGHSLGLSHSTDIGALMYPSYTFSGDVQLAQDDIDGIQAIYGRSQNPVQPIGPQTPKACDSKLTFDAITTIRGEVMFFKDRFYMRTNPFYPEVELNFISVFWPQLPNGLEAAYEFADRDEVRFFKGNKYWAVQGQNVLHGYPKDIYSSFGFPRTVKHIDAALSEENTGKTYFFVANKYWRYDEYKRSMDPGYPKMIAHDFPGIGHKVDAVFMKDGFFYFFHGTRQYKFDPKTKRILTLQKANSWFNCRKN
The assay can be described thus: biochemical. Format: tissue-based, Rheumatoid synovial fibroblasts.
Settings: not given
Turning to `CC(C)(Oc1ccc(C2CCCc3ccccc32)cc1)C(=O)O` (configuration not stated) [NAFENOPIN], the IC50 entry is “Not Active”.

`CC(C)[C@H]1CC[C@H](C(=O)N[C@H](Cc2ccccc2)C(=O)O)CC1` [NATEGLINIDE]: the IC50 entry is given as “Not Active”.

As for `CCN[C@@H]1C[C@H](N)[C@@H](O[C@H]2OC(CN)=CC[C@H]2N)[C@H](O)[C@H]1O[C@H]1OC[C@](C)(O)[C@H](NC)[C@H]1O` [NETILMICIN], the IC50 result was “Not Active”.

The record behind these values is ChEMBL document CHEMBL1909046, “DrugMatrix in vitro pharmacology data”.
